How the values were obtained:
human Plasma Kallikrein = human Plasma Kallikrein (Homo sapiens (Human), UniProt P03952); test: In vitro enzyme inhibition of human plasma kallikrein (Pro-Phe-Arg-AMC cleavage); type: biochemical; conditions: PFR-AMC substrate, 37° C., read-out: hPK IC50
Procedure: The ability of the compounds disclosed herein to inhibit human plasma kallikrein activity was quantified according to the procedures below.
A 10 mM solution of the test compound was made in DMSO. This solution was serially diluted 1:5 in DMSO to yield 2000, 400, 80, 16, 3.2, 0.64, 0.128, 0.0256 and 0.00512 μM compound test solutions. A control tube containing only DMSO is included. 16 μL of each compound test solution was combined with 384 μL of assay buffer (50 mM Tris-HCl pH 7.5, 150 mM NaCl, 0.01% Triton X-100) to yield a “4× test compound buffer stock”.
Separately, a 40 nM solution of human Plasma Kallikrein (Abcam) and a 93.6 μM solution Pro-Phe-Arg-AMC (Bachem) were made using assay buffer. These solutions are hereby refereed to as 4×hPK and 2×PFR-AMC, respectively.
60 μL of each 4× test compound buffer stock was combined with 60 μL of 4× hPK to yield 120 μL of “2× test compound buffer stock/2×hPK”. 50 μL was removed from this mixture and placed into duplicate wells on a Microfluor 1 Black U-bottom microtiter plate (Thermo Scientific). This plate was incubated for 5 minutes at 37° C. To each well, 50 μL of pre-warmed 2×PFR-AMC was added to start the enzymatic reaction. Cleavage of PFR-AMC was monitored in a Biotek Synergy H4 reader set at 37° C. Readings are taken every 43 seconds for 1 hour. The highest mean velocity over 20 reads (˜15 minutes) is used to calculate the IC50. The IC50 is calculated using the Gen5 (Biotek Instruments).
The ability of the compounds in Table 1 to inhibit human plasma kallikrein activity was determined and the data is shown in Table 3.

[1] = molecular target: kallikrein in human plasma (Homo sapiens (Human), UniProt P03952); test: In vitro cellular assay / contact assay: kallikrein activity in ellagic acid-activated human plasma (Z-FR-2-AMC substrate); type: biochemical; conditions: human plasma activated with ellagic acid, 37° C.
Chain of kallikrein in human plasma (P03952 391-638 limits assumed): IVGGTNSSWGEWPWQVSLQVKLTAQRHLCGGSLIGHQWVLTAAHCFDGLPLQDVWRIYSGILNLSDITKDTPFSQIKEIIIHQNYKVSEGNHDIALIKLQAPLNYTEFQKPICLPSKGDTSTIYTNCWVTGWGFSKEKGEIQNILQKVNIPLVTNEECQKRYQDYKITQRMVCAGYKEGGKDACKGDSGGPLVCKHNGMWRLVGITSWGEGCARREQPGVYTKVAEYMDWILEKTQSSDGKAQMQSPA
Chain of kallikrein in human plasma (P03952 20-390 partner limits assumed): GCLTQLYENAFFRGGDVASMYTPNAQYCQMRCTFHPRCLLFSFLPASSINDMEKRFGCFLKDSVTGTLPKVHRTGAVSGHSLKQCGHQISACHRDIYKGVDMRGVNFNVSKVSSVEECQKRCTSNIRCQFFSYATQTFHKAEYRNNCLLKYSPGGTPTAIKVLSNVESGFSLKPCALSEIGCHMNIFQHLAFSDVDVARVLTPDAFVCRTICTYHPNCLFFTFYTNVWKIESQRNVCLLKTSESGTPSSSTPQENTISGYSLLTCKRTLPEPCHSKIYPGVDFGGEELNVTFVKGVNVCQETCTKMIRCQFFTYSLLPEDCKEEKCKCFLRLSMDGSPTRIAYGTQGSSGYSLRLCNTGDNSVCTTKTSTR
Procedure: The ability of the compounds disclosed herein to inhibit cellular kallikrein activity was quantified and the respective EC50 value was determined.
Plasma kallikrein inhibitor C1NH (Athens Research & Technology, Cat #16-16-031509); Ellagic acid (Sigma, E2250); Substrate Z—FR-2-AMC (GL Biochem, Cat #55352); Nunc™ 96-Well Polypropylene MicroWell™ Plates (Nunc, Cat #267342)
All dilutions were prepared in an assay buffer comprising 50 mM Tris-HCl pH 7.2, 150 mM NaCl, and 0.01% Triton X-100.
Four fold serial dilutions were prepared from a 107.53 μM plasma kallikrein inhibitor C1NH stock solution, to yield ten solutions with concentrations between 20 μM and […]. Similarly, four fold serial dilutions were prepared from 10 mM stock solutions of various test compounds, to yield ten solutions with concentrations between 4 mM and 0.015 μM. The ten solutions of the test compounds, prepared by serial dilution, were further diluted 50-fold in the assay buffer.
Human plasma is thawed on ice and centrifuged for 15 min at 4° C. to remove platelets. A 1 mM stock solution of ellagic acid is diluted to 8 μM and mixed with human plasma, after removing platelets, at a ratio of 1:0.8. The mixture of human plasma and ellagic acid was further diluted 32-fold in the assay buffer, to yield the final mixture for use in the inhibition assay.
A 22.5 μL volume of the final mixture of human plasma and ellagic acid was added to a 96-well microwell plate and the plate was incubated for 15 min at 37° C.
The test compounds at various concentrations, also prepared by serial dilutions as described above, are added to the test wells. The volume of test compound added to each test well was 12.5 μL, to yield final concentrations of 20 μM, 5 μM, 1.25 μM, 312.5 nM, 78.125 nM, 19.531 nM, 4.883 nM, 1.221 nM, 0.305 nM, and 0.076 nM. Each test compound concentration was tested in duplicates.
In addition to the inhibitor control and test wells, the 96 well assay plate includes positive control wells which contained the mixture of human plasma and ellagic acid without C1NH inhibitor or test compounds, and background wells which contained neither the mixture of human plasma and ellagic acid nor the test compounds. The total volume of liquid in positive control and background wells was brought up to 35 μL, using the assay buffer.
The assay plate containing C1NH inhibitors and test compounds mixed with human plasma and ellagic acid and appropriate controls was incubated at 37° C. for 5 min. A 10 mM stock solution of substrate Z—FR-2-AMC was diluted to 133.2 μM in the assay buffer, and 15 μL of the diluted substrate was added to each well, to yield a final substrate concentration of 40 μM in each well. […]
The enzyme reaction was quantified by immediate kinetic reading of the assay plate using excitation/emission wavelengths of 330 nm/440 nm respectively. Fluorescence intensity was recorded for 60 min, using a time interval of 43 sec.
The inhibition activity of the test compounds were evaluated using the IC50 values, calculated according to the dose-response curve of the test compounds, fitted using the “log(inhibitor)-response(variable slope)” equation in GraphPadPrism software (GraphPad Software, Inc.).
The percentage inhibition was calculated using the following equation:
[formula] where, Mean(BG) is the average value of the fluorescence intensity of the background wells and Mean(PC) is the average value of the fluorescence intensity of the positive control wells. […]

Chain of human Plasma Kallikrein (P03952 391-638 limits assumed): as the sequence (P03952 391-638 limits assumed) above
Chain of human Plasma Kallikrein (P03952 20-390 partner limits assumed): as the sequence (P03952 20-390 partner limits assumed) above

IC50 (human Plasma Kallikrein) [nM]	EC50 [1] [nM]	SMILES
≤ 100	≤ 100	Cc1cc(N)nc(C)c1CNC(=O)c1cncc(Cc2ccc3ncc(Cl)cc3c2)c1 [Example 22, N-((6-amino-2,4-dimethylpyridin-3-yl)methyl)-5-((3-chloroquinolin-6-yl)methyl)nicotinamide]
≤ 100	≤ 100	Cc1cc(N)nc(C)c1CNC(=O)c1ccc(=O)n(Cc2ccc3ncc(Cl)cc3c2)c1 [Example 21, N-((6-amino-2,4-dimethylpyridin-3-yl)methyl)-1-((3-chloroquinolin-6-yl)methyl)-6-oxo-1,6-dihydropyridine-3-carboxamide]
≤ 100	≤ 100	CS(=O)(=O)c1cc(Cc2cc(C(=O)NCc3cnc4[nH]cc(Cl)c4c3)ccn2)ccc1Cn1ccccc1=O [Example 29]

Reference: patent US10981893B2, “Therapeutic inhibitory compounds” (Attune Pharmaceuticals, Inc., priority 2015, dated 2021)
